{"source": "patent US8668905B2", "about": "(priority 2005, dated 2014)", "origin": "cited, not measured here", "tested_on": "drug-resistant SCLC"}
{"smiles": "CC(=O)O[C@H]1C(=O)[C@@]2(C)[C@H]([C@H](OC(=O)c3ccccc3)[C@]3(O)C[C@H](OC(=O)[C@H](O)[C@@H](NC(=O)c4ccccc4)c4ccccc4)C(C)=C1C3(C)C)[C@]1(OC(C)=O)CO[C@@H]1C[C@@H]2O", "note": "[Taxol, Paclitaxel]", "values": [{"measurement": "life-threatening toxicity", "setting": "(Smit, 1998)", "value": "20 % of patients"}, {"measurement": "median survival", "setting": "drug-resistant SCLC patients (Smit, 1998)", "value": 100, "unit": "days"}]}
